Experiments:
[1] = Release study 8-4b: degradation of model conjugates M20-M27 in aqueous DMF:PBS at 37 °C, HPLC-UV/MS; format: physicochemical; details: first order fit; for half-life at 1 mM: read-out: Calculated stability t1/2, parent (converted)
Method: 8-4b. M20-M27 In Vitro Release Study
In this study, a series of model traceless linker-drug conjugates M20-M27 was held in aqueous solution at 37° C. These reactions were sampled at various timepoints and analyzed to determine the concentration of remaining starting compound. The analytical method was not optimized to determine concentration of the amine-containing drug. Half-life of degradation for the parent was calculated.
Method for Estimation of Conjugate Degradation Rates for M20-M27
Each compound M20-M27 was prepared as a 0.1 M stock solution in DMF. A 35 μL aliquot of each solution was added to 3.465 mL of 2:1 DMF:PBS (for compound M24: 3:1 DMF:PBS) to obtain 1 mM solutions of each compound M20-M27. The reaction vials were held at 37° C. At each time point (e.g., 0, 1, 3, 8, 14, 21, 28, 35, 49, 56, 70, 92 days) analytical samples were prepared by collecting 150 μL from each 1 mM solution and diluting with 75 μL DMF. Two analytical samples were collected from each reaction vial at each time point and stored at 4° C. All samples were analyzed in one batch after completion of the release study. Each sample was analyzed twice using an analytical HPLC method described below.
The composition of the reaction solution was evaluated at each timepoint using HPLC. Compound M20-M27 peaks were assigned by MS detection, and the integration of the peak from the chromatogram generated using UV absorbance detection at 272 nm was determined. The mean peak area for each compound M20-M27 on Day 0 was assigned a normalized value of 100. The absolute area under the curve at each timepoint was compared with these values. Run-to-run peak area reproducibility was typically within 20% on strong signal and considerably worse on weak signals, so normalized signals above 100 likely correspond to values at or approaching 100 (likely 90-100, within experimental error). The percentage of compounds M20-M27 remaining in the solution were calculated by dividing the relevant peak area by the mean area that was assigned a normalized value of 100 and multiplying the result by 100. The percentage of compound M20-M27 present in the solution was plotted versus time and the half-life of degradation was estimated using curve-fitting software assuming first order kinetics.
Analytical HPLC-MS Conditions for Study 8.4b.
All settings the same as for analytical HPLC-MS conditions for study 8.4a except the following: Mobile Phases: A=5 mM ammonium hydroxide in water; B=5 mM ammonium hydroxide in acetonitrile; Flow Rate: 400 μL/min: Gradient (time/% B): 0/10, 0.5/10, 4/80, 8/80, 8.1/10, 12/10. Divert valve switched at 0.5 minutes after sample injection.

[2] = Release study 8-4a: model traceless linker-drug conjugates M1-M19 held in 1×PBS at 37 °C, HPLC-UV/MS; format: physicochemical; details: 1 mM in 1×PBS, first order fit, rounded to nearest whole day; for half-life at 1 mM: read-out: Calculated stability t1/2, parent (converted)
Method: 8-4a. Release Study Protocol for M1-M19 Model Traceless Linker-Drug Conjugates In Vitro
In this study a series of model traceless linker-drug conjugates, in which the drug is a low molecular weight amine-containing compound, was held in 1×PBS at 37° C. These reactions were sampled at various timepoints and analyzed to determine concentration of remaining starting compound, as well as concentration of the released amine-containing drug (p-methoxybenzylamine, 2-amino-pyridine, p-methoxyaniline, or N-methyl-p-methoxybenzylamine). Half-lives for the parent degradation and the half-lives of release for the amine-containing drug were calculated.
Method for Estimation of Amine-Containing Drug Release Rates from M1-M19
Each compound M1-M19 was prepared as a 0.1 M stock solution in DMF, as were a set of standard solutions for the released amine-containing drug (4-methoxybenzylamine, 2-aminopyridine, p-methoxyaniline, and N-methyl-p-methoxybenzylamine). A 35 μL aliquot of each solution was added to 3.465 mL of PBS to obtain 1 mM solutions of each conjugate or amine-containing drug. A 150 μL aliquot of each 1 mM solution was dispensed into LCMS vials with a polypropylene insert; 2 vials were prepared for each compound at each time point.
The vials were incubated at 37° C. At each time point (e.g., 0, 1, 5, 7, 14, 21, 28, 35, 49, and 56 days), two vials of each conjugate were removed from the incubator and frozen at −20° C. to avoid further hydrolysis. All samples were thawed and analyzed in one batch after completion of the release study using the analytical HPLC method described below. Each sample was analyzed twice. Control solutions of the amine-containing drugs were prepared prior to analysis and were analyzed as is without prior incubation at 37° C.
Analytical HPLC-MS Conditions for Study 8.4a
HPLC: Thermo Accela HPLC and Autosampler; Autosampler Tray Temperature: 8° C.; Injection Volume: 20 μL; Column: Phenomenex Kinetex C18, 2.1×50 mm, 2.6 μm. Column Temperature: Ambient; Mobile Phases: A=0.1% formic acid in water; B=0.1% formic acid in acetonitrile; Flow Rate: 200 μL/min. Gradient (time/% B): 0/0, 3/0, 10/80, 15/80, 15.1/0, 18/0.
UV: Thermo Accela PDA; Scan Range: 200-400 nm; Wavelength Step: 1 nm; Sample Rate: 20 Hz; Filter Bandwidth: 9 nm; MS: Thermo LTQ XL; Ionization Mode: ESI; Spray Voltage: 0 V at time 0-1 minutes then switched to 4 kV; Capillary Temperature: 250° C.; Divert Valve: LC eluate to waste at time 0-1 minutes then flow diverted MS; Mass Range: 120-800 Da.
The composition of the solution was evaluated at each timepoint using HPLC. Parent, intermediate and released amine-containing drug peaks were assigned by MS detection, and the relative amounts of each species were determined by integration of the peaks from the chromatogram generated using UV absorbance detection at 272 nm. The mean peak area for each compound M1-M19 on Day 0 was assigned a normalized value of 100. For the standard of the amine-containing drug being released (e.g., p-methoxybenzylamine) the mean peak area of each standard was assigned a normalized value of 100. The absolute area under curve for each species detected were compared with these values. Run-to-run peak area reproducibility was typically within 20% on strong signal and considerably worse on weak signals, so normalized signals above 100 likely correspond to values at or approaching 100 (likely 90-100, within experimental error). The percentage of parent and amine-containing drug present in the solution were calculated by dividing the relevant peak area by the mean area that was assigned a normalized value of 100 for the same species and multiplying the result by 100. The percentage of parent and amine-containing drug present in the solution was plotted versus time and the half-life of degradation for the parent and the half-life of release for the amine-containing drug were estimated using curve-fitting software assuming first order kinetics.

[3] = 1 mM in 2:1 DMF:PBS, rounded to nearest whole day

Row | half-life at 1 mM [2] | SMILES | also measured
1 | 35 days | COC(=O)OCC1CN(C(C)=O)CCN1CC(=O)NCc1ccc(OC)cc1 (stereo not drawn) [M8, (4-acetyl-1-(2′-((4″-methoxybenzyl)amino)-2′-oxoethyl)piperazin-2-yl)methyl methyl carbonate] | –
2 | 6 days | CCC1CCN(CC(=O)Nc2ccccn2)C(COC(C)=O)C1 (stereo not drawn) [M19, 1-(4′-ethyl-1′-(2″-oxo-2″-(pyridin-2″′-ylamino)ethyl)piperidin-2′-yl)methyl acetate] | –
3 | 3 days | COC(=O)C1CN(C(C)=O)CCN1CC(=O)NCc1ccc(OC)cc1 (stereo not drawn) [M7, methyl 4-acetyl-1-(2′-((4″-methoxybenzyl)amino)-2′-oxoethyl)piperazine-2-carboxylate] | –
4 | 50 days | CC(=O)OCC1CN(C(C)=O)CCN1CC(=O)Nc1ccccn1 (stereo not drawn) [M17, 1-(4′-acetyl-1′-(2″-oxo-2″-(pyridin-2′″-ylamino)ethyl)piperazin-2′-yl)methyl acetate] | –
5 | 8 days | CC(=O)OCC1CN(C)CCN1CC(=O)Nc1ccccn1 (stereo not drawn) [M18, 1-(4′-methyl-1′-(2″-oxo-2″-(pyridin-2′″-ylamino)ethyl)piperazin-2′-yl)methyl acetate] | –
6 | 26 days | COc1ccc(CNC(=O)CN2CCN(C(C)=O)CC2COC(C)=O)cc1 (stereo not drawn) [M6, (4-acetyl-1-(2′-((4″-methoxybenzyl)amino)-2′-oxoethyl)piperazin-2-yl)methyl acetate] | –

The remaining lines, values behind:

Row | SMILES | half-life at 1 mM [2] | also measured
7 | CC[Si](CC)(OCC1CN(C(=O)CCNC(=O)OCc2ccccc2)CCN1CC(=O)NCc1ccc(OC)cc1)OC(C)C (stereo not drawn) [M20, Benzyl N-(3-(3′-(((diethyl(isopropoxy)silyl)oxy)methyl)-4′-(2″-((4′″-methoxybenzyl)amino)-2″-oxoethyl)piperazin-1′-yl)-3-oxopropyl)carbamate] | – | half-life at 1 mM [1, 3]: 51 days
8 | CC[Si](CC)(OCC(C)C)OCC1CN(C(=O)CCNC(=O)OCc2ccccc2)CCN1CC(=O)NCc1ccc(OC)cc1 (stereo not drawn) [M24] | – | half-life at 1 mM ([1]; 1 mM in 3:1 DMF:PBS (compound M24)): 36 days
9 | COCC(=O)OCC1CN(C(=O)CCNC(=O)OCc2ccccc2)CCN1CC(=O)NCc1ccc(OC)cc1 (stereo not drawn) [M3, (4-(3′-(((benzyloxy)carbonyl)amino)propanoyl)-1-(2″-((4″′-methoxybenzyl)amino)-2″-oxoethyl)piperazin-2-yl)methyl methoxyacetate] | 2 days | –
10 | CC[Si](CC)(OCC1CN(C(=O)CCNC(=O)OCc2ccccc2)CCN1CC(=O)NCc1ccc(OC)cc1)OC1CCOCC1 (stereo not drawn) [M21] | – | half-life at 1 mM [1, 3]: 126 days
11 | CC[Si](CC)(OCCOCCOC)OCC1CN(C(=O)CCNC(=O)OCc2ccccc2)CCN1CC(=O)NCc1ccc(OC)cc1 (stereo not drawn) [M22] | – | half-life at 1 mM [1, 3]: 23 days
12 | COc1ccc(CNC(=O)CN2CCN(C(=O)CCNC(=O)OCc3ccccc3)CC2COC(C)=O)cc1 (stereo not drawn) [M2, (4-(3′-(((benzyloxy)carbonyl)amino)propanoyl)-1-(2″-((4″′-methoxybenzyl)amino)-2″-oxoethyl)piperazin-2-yl)methyl acetate] | 23 days | –
13 | CCO[Si](OCC1CN(C(=O)CCNC(=O)OCc2ccccc2)CCN1CC(=O)NCc1ccc(OC)cc1)(C(C)C)C(C)C (stereo not drawn) [M27, benzyl N-(3-(3′-(((ethoxydiisopropylsilyl)oxy)methyl)-4′-(2″-((4′′′-methoxybenzyl)amino)-2″-oxoethyl)piperazin-1′-yl)-3-oxopropyl)carbamate] | – | Calculated stability t1/2, parent (d) [1, 3]: No degradation
14 | COCC(=O)OCC1CN(C(=O)CCNC(=O)OCc2ccccc2)CCN1CC(=O)Nc1ccc(OC)cc1 (stereo not drawn) [M5, (4-(3′-(((benzyloxy)carbonyl)amino)propanoyl)-1-(2′-((4″′-methoxyphenyl)amino)-2″-oxoethyl)piperazin-2-yl)methyl 2″″-methoxyacetate] | 3 days | –
15 | CCOCC(C)O[Si](CC)(CC)OCC1CN(C(=O)CCNC(=O)OCc2ccccc2)CCN1CC(=O)NCc1ccc(OC)cc1 (stereo not drawn) [M23] | – | half-life at 1 mM [1, 3]: 47 days
16 | CCC(=O)OCC1CN(C(=O)CCNC(=O)OCc2ccccc2)CCN1CC(=O)NCc1ccc(OC)cc1 (stereo not drawn) [M1, (4-(3′-(((benzyloxy)carbonyl)amino)propanoyl)-1-(2″-((4″′-methoxybenzyl)amino)-2″-oxoethyl)piperazin-2-yl)methyl propionate] | 37 days | –
17 | CCC(C)O[Si](CC)(CC)OCC1CN(C(=O)CCNC(=O)OCc2ccccc2)CCN1CC(=O)NCc1ccc(OC)cc1 (stereo not drawn) [M25] | – | half-life at 1 mM [1, 3]: 80 days
18 | COc1ccc(CNC(=O)CN2CCN(C(=O)CCNC(=O)OCc3ccccc3)CC2CO[Si](OC(C)C)(C(C)C)C(C)C)cc1 (stereo not drawn) [M26, benzyl N-(3-(3′-(((isopropoxydiisopropylsilyl)oxy)methyl)-4′-(2″-((4′′′-methoxybenzyl)amino)-2″-oxoethyl)piperazin-1′-yl)-3-oxopropyl)carbamate] | – | Calculated stability t1/2, parent (d) [1, 3]: No degradation
19 | CNC(=O)OCC1CN(C(C)=O)CCN1CC(=O)NCc1ccc(OC)cc1 (stereo not drawn) [M9, 1-(4′-acetyl-1′-(2″-((4″′-methoxybenzyl)amino)-2″-oxoethyl)piperazin-2′-yl)methyl N-methylcarbamate] | – | Calculated stability t1/2, parent (d) [2]: No degradation
20 | COc1ccc(CNC(=O)CN2CCN(C(C)=O)CC2COC2CCCCO2)cc1 (stereo not drawn) [M10, 2-(4′-acetyl-2′-(((tetrahydro-2″H-pyran-2″-yl)oxy)methyl)piperazin-1′-yl)-N-(4′″-methoxybenzyl)acetamide] | – | Calculated stability t1/2, parent (d) [2]: No degradation
21 | COCC(=O)OCC1CN(C(=O)CCNC(=O)OCc2ccccc2)CCN1CC(=O)N(C)Cc1ccc(OC)cc1 (stereo not drawn) [M4, (4-(3′-(((benzyloxy)carbonyl)amino)propanoyl)-1-(2″-((4′″-methoxybenzyl)(methyl)amino)-2″-oxoethyl)piperazin-2-yl)methyl 2-methoxyacetate] | 2 days | –
